Drawing on ChEMBL document CHEMBL4814066, “Amphiphilic peptide-based MMP3 inhibitors for intra-articular treatment of knee OA” (Bioorg Med Chem, 2021), this text covers IC50, solubility and Activity for twelve compounds.

Structures are written as SMILES. Active and inactive are the calls of the source. The rule behind the calls is not given here. Residues, ends and D or L forms follow the SMILES beside them.

For series [1], the target named is Stromelysin-1 (Homo sapiens, UniProt P08254). Kind of series: Inhibition of human MMP3 catalytic subunit by fluorometric analysis.
Chain of Stromelysin-1 (P08254 whole entry): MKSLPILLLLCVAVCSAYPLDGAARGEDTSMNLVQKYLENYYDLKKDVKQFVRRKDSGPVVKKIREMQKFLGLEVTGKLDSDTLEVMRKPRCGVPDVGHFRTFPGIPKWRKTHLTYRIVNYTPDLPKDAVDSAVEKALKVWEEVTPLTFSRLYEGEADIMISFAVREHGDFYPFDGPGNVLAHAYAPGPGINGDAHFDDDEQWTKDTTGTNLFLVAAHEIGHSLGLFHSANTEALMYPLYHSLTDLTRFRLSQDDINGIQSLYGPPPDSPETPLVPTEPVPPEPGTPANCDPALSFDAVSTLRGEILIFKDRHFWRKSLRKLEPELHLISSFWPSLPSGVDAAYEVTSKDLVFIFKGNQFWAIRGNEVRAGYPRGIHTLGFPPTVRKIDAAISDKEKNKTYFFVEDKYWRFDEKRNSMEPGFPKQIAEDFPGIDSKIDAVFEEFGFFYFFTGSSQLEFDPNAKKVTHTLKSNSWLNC
Series [2] in a line: Solubility in water at 1 mg/ml. The conditions noted are these: buffer. The series is classed as physicochemical.
The nature of series [3]: Cytotoxicity against mouse BALB/3T3 cells clone A31 incubated for 24 hrs by Alamar blue assay. The series is classed as cell-based. To be noted: BALB/3T3 clone A31, 24 h.
Series [4] relates to Cartilage tissue. Kind of series: Antiinflammatory activity against bovine normal hyaline femoral condyles cartilage assessed as reduction in IL-1beta/OSM-induced collagen release at 6 to 127 uM incubated for 21 days with media replenishment for every 7 days relative to control. The format is functional, tissue-based. The conditions noted are these: Bos taurus, dose 6-127 µM, time 21.0 day.

The subject of series [5] is Cartilage tissue. The series can be described thus: Antiinflammatory activity against bovine normal hyaline femoral condyles cartilage assessed as reduction in IL-1beta/OSM-induced collagen release at 93 uM incubated for 21 days with media replenishment for every 7 days relative to control. The format is functional, tissue-based. To be noted: Bos taurus, time 21.0 day.

For `CCCCCCCCC/C=C/CCCCCCCC(=O)N[C@@H](CS)C(=O)NCC(=O)N[C@@H](CCCNC(=N)N)C(=O)O`, the half-inhibitory concentration (IC50) (usually the concentration that inhibits the measured activity by half) in series [1] is more than 50 µM. Also, the solubility result in series [2] was “Insoluble”.
Consider `CC(=O)N[C@@H](CCCNC(=N)N)C(=O)N[C@@H](CS)C(=O)NCC(N)=O` (Ac-Arg-Cys-Gly-NH2), for which it took 95.3 µM to reach half-maximal inhibition in series [1] (IC50). Also, the solubility result in series [2] was “Soluble”.
In series [1], `CC(=O)N[C@@H](CS)C(=O)NCC(=O)N[C@@H](CCCNC(=N)N)C(=O)N[C@@H](CCCCN)C(=O)O` (Ac-CGRK-OH) returned an IC50 of more than 50 µM. Besides, the solubility entry in series [2] was “Soluble”.
The corresponding values for `CC(=O)N[C@@H](CS)C(=O)NCC(=O)N[C@@H](CCCNC(=N)N)C(=O)O` (Ac-Cys-Gly-Arg-OH) are 850 µM and “Insoluble”.
For `CC(=O)N[C@@H](CCCNC(=N)N)C(=O)N[C@@H](CS)C(=O)NCC(=O)N[C@H](C(N)=O)C(C)C` (Ac-RCGV-NH2), the results for the half-inhibitory concentration (IC50) in series [3] and in series [1] were 253 µM and 10.2 µM, respectively. Moreover, the result in series [4] was Active. For the same compound, in series [2], the solubility result is reported as “Soluble”.
`CC(C)[C@H](NC(=O)CNC(=O)[C@H](CS)NC(=O)[C@@H](N)CCCNC(=N)N)C(N)=O` (H-RCGV-NH2) showed an IC50 in series [1] of 173 µM. For the same compound, the solubility result in series [2] was “Soluble”.
The corresponding values for `CCCCCCCCNC(=O)C[C@H](NC(=O)CNC(=O)[C@H](CS)NC(=O)[C@@H](N)CCCNC(=N)N)C(N)=O` (HELM PEPTIDE1{R.C.G.D.[am]}|CHEM1{[CCCCCCCCN[*:1]]}$PEPTIDE1,CHEM1,4:R3-1:R1$$$V2.0) are more than 200 µM and “Insoluble”.
The corresponding values for `CCCCCCCC(=O)N[C@@H](CS)C(=O)NCC(=O)N[C@@H](CCCNC(=N)N)C(=O)O` (HELM PEPTIDE1{[CCCCCCCC(=O)[*:2]].C.G.R}$$$$V2.0) are 4.4 µM and “Insoluble”.
For `CCCCCCCCCCCC(=O)N[C@@H](CS)C(=O)NCC(=O)N[C@@H](CCCNC(=N)N)C(=O)N[C@@H](CCCCN)C(=O)O` (HELM PEPTIDE1{[CCCCCCCCCCCC(=O)[*:2]].C.G.R.K}$$$$V2.0), the outcome in series [5] was Active. Moreover, the figures for the half-inhibitory concentration (IC50) in series [3] and in series [1] were 186 µM and 3.2 µM, respectively. The solubility result in series [2] was “Soluble”.
Compound `CCCCCCCCCCCC(=O)N[C@@H](CS)C(=O)NCC(=O)N[C@@H](CCCNC(=N)N)C(=O)O` (HELM PEPTIDE1{[CCCCCCCCCCCC(=O)[*:2]].C.G.R}$$$$V2.0) had an IC50 in series [1] of 7 µM. Also, the solubility entry in series [2] is listed as “Insoluble”.
In the same order, the values of `CCCCCCCCNC(=O)C[C@H](NC(=O)CNC(=O)[C@H](CS)NC(=O)[C@H](CCCNC(=N)N)NC(C)=O)C(N)=O` (HELM PEPTIDE1{[ac].R.C.G.D.[am]}|CHEM1{[CCCCCCCCN[*:1]]}$PEPTIDE1,CHEM1,5:R3-1:R1$$$V2.0) are 61.4 µM and “Soluble”.
In the same order, the values of `CCCC[C@H](NC(=O)CNC(=O)[C@H](CS)NC(=O)[C@H](CCCNC(=N)N)NC(C)=O)C(N)=O` (HELM PEPTIDE1{[ac].R.C.G.[Nle].[am]}$$$$V2.0) are 79.5 µM and “Soluble”.
